{
  "source": "paper PMC3261769",
  "about": "(Journal of Medicinal Chemistry, 2011)",
  "key": {"[1]": {"system": "A2780-CIS cells (cisplatin-resistant)", "assay": "Growth inhibition of A2780-CIS cells", "type": "cell-based, human"}, "[2]": {"system": "A2780wt cells", "assay": "Growth inhibition of A2780wt cells", "type": "cell-based, human", "details": "read-out: IC50 ± SD A2780wt"}, "[3]": {"system": "OVCAR-3 cells", "assay": "Growth inhibition of OVCAR-3 cells", "type": "cell-based, human"}, "[4]": {"system": "tubulin", "assay": "Inhibition of tubulin polymerization", "type": "biochemical", "details": "read-out: tubulin assembly inhibition; footnotes of Table 4"}, "[5]": {"assay": "iv and os pharmacokinetics in mice", "type": "in vivo", "details": "male, CD-1, mouse, plasma, 5 mg/kg"}, "[6]": {"system": "MCF-7 human breast carcinoma cells", "details": "read-out: IC50 ± SD MCF-7; ref [16]; cited from earlier work"}, "[7]": {"system": "HUVEC human umbilical vein endothelial cells", "details": "read-out: IC50 ± SD HUVEC; ref [16]; cited from earlier work"}, "[8]": {"system": "HAOSMC human aortic smooth muscle cells", "details": "read-out: IC50 ± SD HAOSMC; ref [16]; cited from earlier work"}, "[9]": {"system": "A10 rat embryonic aortic smooth muscle cells", "details": "read-out: IC50 ± SD A10; ref [16]; cited from earlier work"}, "[10]": {"system": "PtK2 kidney epithelial cells", "details": "read-out: IC50 ± SD PtK2; ref [16]; cited from earlier work"}},
  "data": [
    {"smiles": "N.N.[Cl][Pt][Cl]", "note": "[cisplatin]", "values": [
      {"measurement": "RI-1 (Resistant Index-1)", "setting": "[1]; IC50 in A2780-CIS divided by IC50 in A2780wt", "value": 18.5},
      {"measurement": "IC50", "setting": "[1]; read-out: IC50 ± SD A2780-CIS", "value": "8.98 ± 0.565", "unit": "µM"},
      {"measurement": "IC50", "setting": "[2]", "value": "485 ± 60", "unit": "nM"},
      {"measurement": "RI-2 (Resistant Index-2)", "setting": "[3]; IC50 in OVCAR-3 divided by IC50 in A2780wt", "value": 3.7},
      {"measurement": "IC50", "setting": "[3]; read-out: IC50 ± SD OVCAR-3", "value": "1820 ± 254", "unit": "nM"}
    ]},
    {"smiles": "CCC1=C[C@@H]2CN(C1)Cc1c([nH]c3ccccc13)[C@@](C(=O)OC)(c1cc3c(cc1OC)N(C)[C@H]1[C@@](O)(C(=O)OC)[C@H](OC(C)=O)[C@]4(CC)C=CCN5CC[C@]31[C@@H]54)C2", "note": "[VRB, vinorelbine]", "values": [
      {"measurement": "IC50", "setting": "[4]", "value": 3100, "unit": "nM"}
    ]},
    {"smiles": "COc1cc(Sc2c(-c3cc[nH]c3)[nH]c3ccccc23)cc(OC)c1OC", "note": "[Compound 5, 2-(1H-Pyrrol-3-yl)-3-[(3′,4′,5′-trimethoxyphenyl)thio]-1H-indole]", "values": [
      {"measurement": "clearance", "setting": "[5]", "value": 28.6, "unit": "mL/min/kg"}
    ]},
    {"smiles": "CC(=O)O[C@H]1C(=O)[C@@]2(C)[C@H]([C@H](OC(=O)c3ccccc3)[C@]3(O)C[C@H](OC(=O)[C@H](O)[C@@H](NC(=O)c4ccccc4)c4ccccc4)C(C)=C1C3(C)C)[C@]1(OC(C)=O)CO[C@@H]1C[C@@H]2O", "note": "[PTX, paclitaxel]", "values": [
      {"measurement": "IC50", "setting": "[6]", "value": "3 ± 0.5", "unit": "nM"},
      {"measurement": "IC50", "setting": "[7]", "value": "7 ± 4", "unit": "nM"},
      {"measurement": "IC50", "setting": "[8]", "value": "6 ± 6", "unit": "nM"},
      {"measurement": "IC50", "setting": "[9]", "value": "38 ± 10", "unit": "nM"},
      {"measurement": "IC50", "setting": "[10]", "value": "21 ± 8", "unit": "nM"}
    ]},
    {"smiles": "CC[C@]1(O)C[C@@H]2CN(CCc3c([nH]c4ccccc34)[C@@](C(=O)OC)(c3cc4c(cc3OC)N(C)[C@H]3[C@@](O)(C(=O)OC)[C@H](OC(C)=O)[C@]5(CC)C=CCN6CC[C@]43[C@@H]65)C2)C1", "note": "[VBL, vinblastine]", "values": [
      {"measurement": "IC50", "setting": "[4]", "value": "[…]"}
    ]}
  ]
}
